Measurements: patent US20230227427A1, “IL-17A MODULATORS” (SANOFI, priority 2010, published 2023)

molecular target: T1, human recombinant IL-17A (Homo sapiens, UniProt Q16552); assay: IL-17A AlphaLISA assay (block binding of IL-17A to its receptor IL-17RA); settings: compounds pre-incubated with the IL-17A for 30 min (indicated by * in Table A); read-out: AlphaLISA pIC50 (converted)
T1 construct: purchased R&D Systems 7955-IL/CF
T1 sequence (Q16552 24-155): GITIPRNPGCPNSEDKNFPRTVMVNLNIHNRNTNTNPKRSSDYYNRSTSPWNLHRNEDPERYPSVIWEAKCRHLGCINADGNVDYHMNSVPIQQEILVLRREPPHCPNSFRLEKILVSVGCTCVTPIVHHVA
Procedure, shortened: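 PBS with 0.05% Tween-20 and 0.1% BSA. IL-17A stock 7.5 nM, IL-17RA/Fc stock 5 nM; compound–cytokine pre-incubation 24 h at RT, or 30 min where marked, then 90 min with receptor. pIC50 from 4-parameter logistic AlphaLISA signal, normalised to DMSO and 6 μM reference inhibitor.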

| IC50 [nM] | Structure (SMILES) |
| --- | --- |
| 200 | Cc1n[nH]c(C)c1-c1ccc(NC(=O)[C@@H](NC(=O)c2ccnn2C)[C@H]2CC[C@H](C)CC2)nc1 [Example 99, N—((S)-2-((5-(3,5-Dimethyl-1H-pyrazol-4-yl)pyridin-2-yl)amino)-1-((1r,4S)-4-methylcyclohexyl)-2-oxoethyl)-1-methyl-1H-pyrazole-5-carboxamide] |
| 126 | Cc1cncc(C)c1-c1ccc(NC(=O)C(NC(=O)c2ccnn2C)C2CCCCCCC2)cc1 (stereo not drawn) [Example 103, N-(1-Cyclooctyl-2-((4-(3,5-dimethylpyridin-4-yl)phenyl)amino)-2-oxoethyl)-1-methyl-1H-pyrazole-5-carboxamide] |
| 79.4 | Cc1n[nH]c(C)c1-c1ccc(NC(=O)C(NC(=O)c2ccnn2C)C2CCCCCCC2)cc1 (stereo not drawn) [Example 104, N-(1-Cyclooctyl-2-((4-(3,5-dimethyl-1H-pyrazol-4-yl)phenyl)amino)-2-oxoethyl)-1-methyl-1H-pyrazole-5-carboxamide] |
| 158 | Cc1noc(C)c1-c1ccc(NC(=O)C(NC(=O)c2ccnn2C)C2CCCCCCC2)nc1 (stereo not drawn) [Example 105, N-(1-Cyclooctyl-2-((5-(3,5-dimethylisoxazol-4-yl)pyridin-2-yl)amino)-2-oxoethyl)-1-methyl-1H-pyrazole-5-carboxamide] |
| 100 | Cc1cnn(C)c1-c1ccc(NC(=O)[C@@H](NC(=O)c2ccnn2C)[C@H]2CC[C@H](C)CC2)nc1 [Example 106, N—((S)-2-((5-(1,4-Dimethyl-1H-pyrazol-5-yl)pyridin-2-yl)amino)-1-((1r,4S)-4-methylcyclohexyl)-2-oxoethyl)-1-methyl-1H-pyrazole-5-carboxamide] |
| 158 | Cc1c(-c2ccc(NC(=O)C(NC(=O)c3ccnn3C)C3CCCCCCC3)cc2)ccc(=O)n1C (stereo not drawn) [Example 107, N-(1-Cyclooctyl-2-((4-(1,2-dimethyl-6-oxo-1,6-dihydropyridin-3-yl)phenyl)amino)-2-oxoethyl)-1-methyl-1H-pyrazole-5-carboxamide] |
| 126 | Cc1noc(C)c1-c1ccc(NC(=O)[C@@H](NC(=O)c2ccnn2C(C)C)C2CCCCC2)nc1 [Example 108, (S)—N-(1-Cyclohexyl-2-((5-(3,5-dimethylisoxazol-4-yl)pyridin-2-yl)amino)-2-oxoethyl)-1-isopropyl-1H-pyrazole-5-carboxamide] |
| 100 | CCn1nccc1C(=O)N[C@H](C(=O)Nc1ccc(-c2c(C)noc2C)cn1)[C@H]1CC[C@H](C)CC1 [Example 109, N—((S)-2-((5-(3,5-Dimethylisoxazol-4-yl)pyridin-2-yl)amino)-1-((1r,4S)-4-methylcyclohexyl)-2-oxoethyl)-1-ethyl-1H-pyrazole-5-carboxamide] |
| 79.4 | Cc1noc(C)c1-c1ccc(NC(=O)[C@@H](NC(=O)c2ccnn2C(C)C)[C@H]2CC[C@H](C)CC2)nc1 [Example 110, N—((S)-2-((5-(3,5-dimethylisoxazol-4-yl)pyridin-2-yl)amino)-1-((1r,4S)-4-methylcyclohexyl)-2-oxoethyl)-1-isopropyl-1H-pyrazole-5-carboxamide] |
| 79.4 | CCc1nocc1C(=O)N[C@H](C(=O)Nc1ccc(-c2c(C)noc2C)cn1)[C@H]1CC[C@H](C)CC1 [Example 111, N—((S)-2-((5-(3,5-dimethylisoxazol-4-yl)pyridin-2-yl)amino)-1-((1r,4S)-4-methylcyclohexyl)-2-oxoethyl)-3-ethylisoxazole-4-carboxamide] |
| 100 | Cc1nocc1C(=O)N[C@H](C(=O)Nc1ccc(-c2c(C)noc2C)cn1)[C@H]1CC[C@H](C)CC1 [Example 112, N—((S)-2-((5-(3,5-dimethylisoxazol-4-yl)pyridin-2-yl)amino)-1-((1r,4S)-4-methylcyclohexyl)-2-oxoethyl)-3-methylisoxazole-4-carboxamide] |
| 158 | Cc1cnn(C)c1-c1ccc(NC(=O)C(NC(=O)c2ccnn2C)C2CCCCCCC2)nc1 (stereo not drawn) [Example 113, N-(1-Cyclooctyl-2-((5-(1,4-dimethyl-1H-pyrazol-5-yl)pyridin-2-yl)amino)-2-oxoethyl)-1-methyl-1H-pyrazole-5-carboxamide] |
| 158 | CCc1nocc1C(=O)N[C@H](C(=O)Nc1ccc(-c2c(C)noc2C)cn1)C1CCCCC1 [Example 114, (S)—N-(1-Cyclohexyl-2-((5-(3,5-dimethylisoxazol-4-yl)pyridin-2-yl)amino)-2-oxoethyl)-3-ethylisoxazole-4-carboxamide] |

same assay, conditions: compounds pre-incubated with the IL-17A for 24 h at room temperature; read-out: AlphaLISA pIC50 (converted)

| IC50 [nM] | Structure (SMILES) |
| --- | --- |
| 63.1 | Cc1c(-c2ccc(NC(=O)[C@@H](NC(=O)c3ccnn3C)[C@H]3CC[C@H](C)CC3)cc2F)ccc(=O)n1C [Example 83, N—((S)-2-((4-(1,2-Dimethyl-6-oxo-1,6-dihydropyridin-3-yl)-3-fluorophenyl)amino)-1-((1r,4S)-4-methylcyclohexyl)-2-oxoethyl)-1-methyl-1H-pyrazole-5-carboxamide] |
| 31.6 | Cc1n[nH]c(C)c1-c1ccc(NC(=O)[C@@H](NC(=O)c2ccnn2C)[C@H]2CC[C@H](C)CC2)cc1 [Example 84, N—((S)-2-((4-(3,5-Dimethyl-1H-pyrazol-4-yl)phenyl)amino)-1-((1r,4S)-4-methylcyclohexyl)-2-oxoethyl)-1-methyl-1H-pyrazole-5-carboxamide] |
| 63.1 | Cn1nccc1C(=O)N[C@H](C(=O)Nc1ccc(-c2c[nH]c(=O)c3[nH]ccc23)cc1)[C@H]1CC[C@H](C)CC1 [Example 85, 1-Methyl-N—((S)-1-((1r,4S)-4-methylcyclohexyl)-2-oxo-2-((4-(7-oxo-6,7-dihydro-1H-pyrrolo[2,3-c]pyridin-4-yl)phenyl)amino)ethyl)-1H-pyrazole-5-carboxamide] |
| 251 | Cn1nccc1C(=O)N[C@H](C(=O)Nc1ccc(-c2ccncc2CC(=O)N2CCCC2)cc1)[C@H]1CC[C@H](C)CC1 [Example 86, 1-Methyl-N—((S)-1-((1r,4S)-4-methylcyclohexyl)-2-oxo-2-((4-(3-(2-oxo-2-(pyrrolidin-1-yl)ethyl)pyridin-4-yl)phenyl)amino)ethyl)-1H-pyrazole-5-carboxamide] |
| 501 | Cn1nccc1C(=O)N[C@H](C(=O)Nc1ccc(-c2cc[nH]c(=O)c2)cc1)[C@H]1CC[C@H](C)CC1 [Example 87, 1-Methyl-N—((S)-1-((1r,4S)-4-methylcyclohexyl)-2-oxo-2-((4-(2-oxo-1,2-dihydropyridin-4-yl)phenyl)amino)ethyl)-1H-pyrazole-5-carboxamide] |
| 398 | Cn1nccc1C(=O)N[C@H](C(=O)Nc1ccc(-c2cccc3nccn23)cc1)[C@H]1CC[C@H](C)CC1 [Example 88, N—((S)-2-((4-(Imidazo[1,2-a]pyridin-5-yl)phenyl)amino)-1-((1r,4S)-4-methylcyclohexyl)-2-oxoethyl)-1-methyl-1H-pyrazole-5-carboxamide] |
| 63.1 | Cc1cncc(C)c1-c1ccc(NC(=O)[C@@H](NC(=O)c2ccnn2C)[C@H]2CC[C@H](C)CC2)nc1 [Example 90, N—((S)-2-((3′,5′-Dimethyl-[3,4′-bipyridin]-6-yl)amino)-1-((1r,4S)-4-methylcyclohexyl)-2-oxoethyl)-1-methyl-1H-pyrazole-5-carboxamide] |
| 251 | CCn1nccc1C(=O)N[C@H](C(=O)Nc1ccc(-c2ccc(=O)n(C)c2C)cn1)[C@H]1CC[C@H](C)CC1 [Example 91, N—((S)-2-((1′,2′-Dimethyl-6′-oxo-1′,6′-dihydro-[3,3′-bipyridin]-6-yl)amino)-1-((1r,4S)-4-methylcyclohexyl)-2-oxoethyl)-1-ethyl-1H-pyrazole-5-carboxamide] |
| 20 | CCn1nccc1C(=O)N[C@H](C(=O)Nc1ccc(-c2c(C)cncc2C)cn1)[C@H]1CC[C@H](C)CC1 [Example 92, N—((S)-2-((3′,5′-Dimethyl-[3,4′-bipyridin]-6-yl)amino)-1-((1r,4S)-4-methylcyclohexyl)-2-oxoethyl)-1-ethyl-1H-pyrazole-5-carboxamide] |
| 50.1 | Cn1nccc1C(=O)N[C@H](C(=O)Nc1ccc(C2CCOCC2)cc1)[C@H]1CC[C@H](C)CC1 [Example 93, 1-Methyl-N—((S)-1-((1r,4S)-4-methylcyclohexyl)-2-oxo-2-((4-(tetrahydro-2H-pyran-4-yl)phenyl)amino)ethyl)-1H-pyrazole-5-carboxamide] |
| 126 | Cn1nccc1C(=O)N[C@H](C(=O)Nc1ccc(C2(O)CCOCC2)cc1)[C@H]1CC[C@H](C)CC1 [Example 94, N—((S)-2-((4-(4-Hydroxytetrahydro-2H-pyran-4-yl)phenyl)amino)-1-((1r,4S)-4-methylcyclohexyl)-2-oxoethyl)-1-methyl-1H-pyrazole-5-carboxamide] |
| 100 | Cn1nccc1C(=O)N[C@H](C(=O)Nc1ccc(C2=CCOCC2)cc1)[C@H]1CC[C@H](C)CC1 [Example 95, N—((S)-2-((4-(3,6-Dihydro-2H-pyran-4-yl)phenyl)amino)-1-((1r,4S)-4-methylcyclohexyl)-2-oxoethyl)-1-methyl-1H-pyrazole-5-carboxamide] |
| 50.1 | Cc1noc(C)c1-c1ccc(NC(=O)[C@@H](NC(=O)c2ccnn2C)[C@H]2CC[C@H](C)CC2)cc1 [Example 96, N—((S)-2-((4-(3,5-Dimethylisoxazol-4-yl)phenyl)amino)-1-((1r,4S)-4-methylcyclohexyl)-2-oxoethyl)-1-methyl-1H-pyrazole-5-carboxamide] |
| 79.4 | Cc1noc(C)c1-c1ccc(NC(=O)[C@@H](NC(=O)c2ccnn2C)[C@H]2CC[C@H](C)CC2)nc1 [Example 97, N—((S)-2-((5-(3,5-Dimethylisoxazol-4-yl)pyridin-2-yl)amino)-1-((1r,4S)-4-methylcyclohexyl)-2-oxoethyl)-1-methyl-1H-pyrazole-5-carboxamide] |
